What all share (format): binding
Test [1] deals with T1, human HER2 (23-652) (Homo sapiens, UniProt P04626). Briefly: Surface plasmon resonance (SPR) for assessment of peptide affinity, human HER2. Also noted: towards human HER2 (23-652) and mouse HER2 (23-653); made in house. As to conditions: SPR, human HER2 extracellular domain, 25° C., 1:1 binding model; read-out: huHER2-SPR-ONC KD. The gist of the method:
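Binding kinetics fitted from sensorgrams with 280 s peptide association then 3000 s dissociation (30 uL/min), using HER2 (23-652) either directly immobilized (SA/CM5) or anti-Fc-captured; 3 M magnesium chloride used for regeneration.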

The target of test [2] is T2, mouse HER2 (23-653) (Mus musculus, UniProt P70424). The experiment in a line: Surface plasmon resonance (SPR) for assessment of peptide affinity, mouse HER2. Also noted: mouse HER2 (23-653) using a Cy5 labeled peptide as a probe; made in house. As to conditions: SPR, mouse HER2 extracellular domain, 25° C., 1:1 binding model; read-out: moHER2-SPR-ONC KD. An excerpt: Each protein was immobilized either onto a SA sensorchip (Cytiva, BR-1005-31) or CM5 sensorchip (Cytiva, BR-1005-30) to a density of 800-2000 RU.
In general terms: Surface plasmon resonance follows binding to a sensor surface in real time, without labels.

The target in test [3] is T1, human HER2 (23-652). Briefly: TR-FRET competition assay for peptide potency, human HER2. As to conditions: read-out: huHER2 TR-FRET IC50. Further details: towards human HER2 (23-652) and mouse HER2 (23-653); made in house; host or cells: mammalian cells. For orientation: In TR-FRET formats the signal depends on donor and acceptor labels being close together.
For test [4], the target named is T2, mouse HER2 (23-653). The experiment in a line: TR-FRET competition assay for peptide potency, mouse HER2. Further details: mouse HER2 (23-653) using a Cy5 labeled peptide as a probe; made in house; host or cells: mammalian cells. As to conditions: TR-FRET competition with Cy5 labeled peptide probe, 0.1 nM mouse HER2, 24 h incubation; read-out: moHER2 TR-FRET IC50.

Structures can show the parent of a compound that is named as a salt. Positions of bridges follow the written chain, without caps; N, C: chain ends. Non-standard residues stand in square brackets, D forms with d. Residues, ends and D or L forms follow the SMILES beside them. Trp(5-OH) = N[C@@H](Cc1c[nH]c2ccc(O)cc12)C(=O)O; NMehPhe = CN[C@@H](CCc1ccccc1)C(=O)O; NMeAoc(2) = CCCCCC[C@H](NC)C(=O)O; Aad = N[C@@H](CCCC(=O)O)C(=O)O; Gly(cPr) = N[C@H](C(=O)O)C1CC1; NMeK = CN[C@@H](CCCCN)C(=O)O; NMeDap = CN[C@@H](CN)C(=O)O

For `CC(=O)NCCCC[C@H]1C(=O)N[C@@H](Cc2c[nH]c3ccc(O)cc23)C(=O)N[C@@H](Cc2c[nH]c3ccccc23)C(=O)N[C@@H](C2CC2)C(=O)N(C)[C@H](C(=O)N(C)[C@@H](Cc2ccc(F)cc2)C(=O)N[C@@H](CCCCNC(=O)CCC(C(=O)O)N2CCN(CC(=O)O)CCN(CC(=O)O)CC2)C(N)=O)CNC(=O)CCC[C@H](NC(C)=O)C(=O)N[C@@H](Cc2ccc(O)cc2)C(=O)N[C@@H](CO)C(=O)N(C)[C@@H](CCc2ccccc2)C(=O)N1C` (stereo partly shown) [Example B13], the Kd on human HER2 (23-652) [1] and on mouse HER2 (23-653) [2] was under 0.1 nM each time. For the same molecule, the IC50 at human HER2 (23-652) [3] and on mouse HER2 (23-653) [4] was under 0.1 nM each time.
Consider `CC(=O)N[C@H]1CCCC(=O)NC[C@@H](C(=O)N(C)[C@@H](Cc2ccc(F)cc2)C(=O)N[C@@H](CCCCNC(=O)CN2CCN(CC(=O)O)CCN(CC(=O)O)CCN(CC(=O)O)CC2)C(N)=O)N(C)C(=O)[C@H]([C@H](C)O)NC(=O)[C@H](Cc2c[nH]c3ccccc23)NC(=O)[C@H](Cc2c[nH]c3ccc(O)cc23)NC(=O)[C@H](CCCCNC(=O)CO)N(C)C(=O)[C@H](CCc2ccccc2)N(C)C(=O)[C@H](CO)NC(=O)[C@H](Cc2ccc(O)cc2)NC1=O` [Example B6], for which the Kd at human HER2 (23-652) [1] was 0.5 nM; at mouse HER2 (23-653) [2], 1.2 nM. Further, the IC50 at human HER2 (23-652) [3] was found to be 0.3 nM; on mouse HER2 (23-653) [4] it was 1.1 nM.
Take `CN1C(=O)[C@H](CO)NC(=O)[C@H](Cc2ccc(O)cc2)NC(=O)[C@@H](N)Cc2cccc(c2)CC(=O)NC[C@@H](C(=O)N(C)[C@@H](Cc2ccc(F)cc2)C(N)=O)N(C)C(=O)[C@H](C2CC2)NC(=O)[C@H](Cc2c[nH]c3ccccc23)NC(=O)[C@H](Cc2c[nH]c3ccc(O)cc23)NC(=O)[C@H](CO)N(C)C(=O)[C@@H]1CCc1ccccc1` [Example A31, (6S,9S,12S,15S,18S,21S,24S,27S,30S)-12-((1H-indol-3-yl)methyl)-30-amino-N—((S)-1-amino-3-(4-fluorophenyl)-1-oxopropan-2-yl)-9-cyclopropyl-15-((5-hydroxy-1H-indol-3-yl)methyl)-27-(4-hydroxybenzyl)-18,24-bis(hydroxymethyl)-N,7,19,22-tetramethyl-3,8,11,14,17,20,23,26,29-nonaoxo-21-phenethyl-4,7,10,13,16,19,22,25,28-nonaaza-1 (1,3)-benzenacyclohentriacontaphane-6-carboxamide TFA salt]: the Kd at human HER2 (23-652) [1] stood at 485 nM; at mouse HER2 (23-653) [2], 755 nM. The IC50 at human HER2 (23-652) [3] is 844 nM; at mouse HER2 (23-653) [4] it was over 1000 nM.
As to `CCCCCC[C@@H](C(N)=O)N(C)C(=O)[C@@H]1CNC(=O)CCC[C@H](NC(C)=O)C(=O)N[C@@H](Cc2ccc(O)cc2)C(=O)N[C@@H](CO)C(=O)N(C)[C@@H](CCc2ccccc2)C(=O)N(C)[C@@H](CCCCNC(C)=O)C(=O)N[C@@H](Cc2c[nH]c3ccc(O)cc23)C(=O)N[C@@H](Cc2c[nH]c3ccccc23)C(=O)N[C@@H](C2CC2)C(=O)N1C` [Example A13, (3S,6S,9S,12S,15S,18S,21S,24S,27S)-9-((1H-indol-3-yl)methyl)-27-acetamido-15-(4-acetamidobutyl)-N-((S)-1-amino-1-oxooctan-2-yl)-6-cyclopropyl-12-((5-hydroxy-1H-indol-3-yl)methyl)-24-(4-hydroxybenzyl)-21-(hydroxymethyl)-N,4,16,19-tetramethyl-5,8,11,14,17,20,23,26,31-nonaoxo-18-phenethyl-1,4,7,10,13,16,19,22,25-nonaazacyclohentriacontane-3-carboxamide] (Ac-[Aad]YS[NMehPhe][NMeK](Ac)[Trp(5-OH)]W[Gly(cPr)][NMeDap][NMeAoc(2)]-NH2; lactam 1-9), the dissociation constant (Kd) on human HER2 (23-652) [1] is 40 nM; at mouse HER2 (23-653) [2], 44 nM. In addition, the IC50 on human HER2 (23-652) [3] was 46 nM; at mouse HER2 (23-653) [4], 107 nM.

One may read the Kd as a measure of binding affinity in units of concentration. Usually IC50 stands for the concentration that gives 50% inhibition.

For the origin of these results see patent publication US20250332300A1 (priority 2024, published 2025).
